According to publication PMC4594923, “Food Polyphenols Fail to Cause a Biologically Relevant Reduction of COX-2 Activity” (PLoS ONE, 2015):
Entries after “also recorded” stand apart in the source; their conditions may differ. Marks after values point to notes of the source that are not given here.

Key:
[1] = tested on: arachidonic acid (AA) cascade; test: plasma oxylipin/PG levels in LPS induced sepsis in mice;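 also: male C57BL/6N mice given LPS, plasma oxylipins quantified by LC-MS after solid-phase extraction, pretreatment or vehicle given intraperitoneally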; assay type: in vivo, C57BL/6N mice; conditions: mice, 24 h after LPS, vs. LPS group
IL–6 = test: kidney IL–6 mRNA (qPCR) in LPS induced sepsis in mice; assay type: in vivo, C57BL/6N mice; conditions: compound i. p. 100 mg/kg bw 2 h before LPS, 24 h after LPS
Experimental: (§1) Samples were stored at -80°C till further analysis. […] Plasma was generated by centrifugation at 4000 g at 4°C and stored at -80°C till further analysis.
(§2) Tissue sections were stored in RNA-later immediately after organ retrieval. Total RNA was extracted using the RNeasy mini kit system (Qiagen, Hilden, Germany) and transcribed using Superscript II Reverse transcriptase (Invitrogen). Quantitative (q) PCR was performed on […] (Roche Diagnostics, Penzberg, Germany) using FastStart Sybr-Green chemistry. Gene-specific primers for IL–6 (Quantitec QT00098875, Qiagen) and MCP–1 (Quantitec QT00167832, Qiagen) were used for the gene of interest and HPRT served as house keeping gene for normalization (Quantitec QT00166768, Qigaen). Quantification was carried out using qgene software.

[2] = clinical chemistry in plasma (urea, creatinine, AST, ALT, LDH) in LPS induced sepsis in mice; assay type: in vivo, C57BL/6N mice; conditions: compound i. p. 100 mg/kg bw 2 h before LPS, 24 h after LPS
[3] = tested on: arachidonic acid (AA) cascade; test: kidney tissue oxylipin/PG levels in LPS induced sepsis in mice;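 also: male C57BL/6N mice challenged with LPS, kidney taken 24 h later, oxylipins quantified by LC-MS after solid-phase extraction of tissue homogenate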
Text: Twelve week old male C57BL/6N mice (Charles River, Sulzfeld, Germany) were used for all experiments. C57BL/6 male mice (H2^b, 11–13 weeks of age) were obtained from Charles River (Sulzfeld, Germany). Animals were cared for in accordance with the institution’s guidelines for experimental animals and with the guidelines of the American Physiological Society. […] Mice were monitored closely and if they appeared compromised (i.e. inactivity, no intake of food or water) after compound or LPS injection the experiment was terminated.
Oxylipin levels were analyzed in plasma and tissues by LC-MS following SPE extraction of 200 μl plasma or tissue homogenate (50 mg) on Chromabond C18 ec cartridges (Machery-Nagel, Düren, Germany) [19].
GraphPad Prism 5.0 (GraphPad Software, San Diego, USA) was used for data analysis, the fitting of dose response curves and calculation of the IC50 values. Statistical differences were determined by Dunnetts test (LPS vs. other groups).

MCP–1 = test: kidney MCP–1 mRNA (qPCR) in LPS induced sepsis in mice; assay type: in vivo, C57BL/6N mice; conditions: compound i. p. 100 mg/kg bw 2 h before LPS, 24 h after LPS, vs. LPS group
Experimental: as §1, §2

[4] = compound i. p. 100 mg/kg bw 2 h before LPS (10 mg/kg bw i. p.)
[5] = kidney tissue 24 h after LPS treatment, LPS +, mean
[6] = kidney tissue 24 h after LPS treatment, LPS +, mean, < = below LOQ
[7] = mice, compound i. p. 100 mg/kg bw 2 h before LPS, 24 h after LPS, vs. LPS group

Cc1ccc(-c2cc(C(F)(F)F)nn2-c2ccc(S(N)(=O)=O)cc2)cc1 [celecoxib, reference compound]
plasma 6-keto-PGF1α level [1, 4]: below the limit of quantification; also recorded: decreased
plasma 13,14-dihydro-15-keto-PGE1 level [1, 4]: below the limit of quantification; also recorded: decreased
plasma 13,14-dihydro-15-keto-PGF2α level [1, 4]: massively decreased
plasma PG levels (LPS induced PG increase) [1, 4]: effectively attenuated; also recorded: reduced
plasma PGE2 level [1, 4]: massively decreased
plasma PGF2α level [1, 4]: below the limit of quantification
plasma epoxy- and dihydroxy-fatty acid (FA) metabolites of the CYP pathway ([1]; compound i. p. 100 mg/kg bw 2 h before LPS): decreased
further increase of kidney IL–6 mRNA expression in comparison to LPS group (IL–6): 9 fold
plasma ALT activity [2]: elevated; also recorded: moderate elevation
plasma AST activity [2]: elevated; also recorded: moderate elevation
plasma LDH activity [2]: moderate elevation
plasma creatinine level [2]: elevation
plasma urea level [2]: elevation
1a,1b-dihomo-PGF2α [3, 5]: 0.54^* nM
4,5-DiHDPE [3, 5]: 22^‡ nM
4-HDHA [3, 5]: 21 nM
5(6)-EpETrE [3, 5]: 130^† nM
5,6-DiHETrE [3, 5]: 2.1^‡ nM
5-HEPE [3, 5]: 1.5^‡ nM
5-HETE [3, 5]: 16^‡ nM
5-oxo-ETE [3, 5]: 31 nM
6-keto-PGF1α [3, 5]: 36 nM
7,8-DiHDPE [3, 5]: 1.9 nM
7-HDHA [3, 5]: 4.8^‡ nM
8(9)-EpETrE [3, 5]: 30^† nM
8,9-DiHETrE [3, 5]: 1.7 nM
8-HDHA [3, 5]: 24^‡ nM
8-HETE [3, 5]: 4.6 nM
8-iPF2a [3, 5]: 1.2 nM
9(10)-EpOME [3, 5]: 160^* nM
9(10)-Epoxystearic acid [3, 5]: 81^† nM
9,10,13-TriHOME [3, 5]: 4.1 nM
9,10-DiHODE [3, 5]: 1.3 nM
9,10-DiHOME [3, 5]: 17^* nM
9,10-Dihydroxystearic acid [3, 5]: 58 nM
9,12,13-TriHOME [3, 5]: 24 nM
9-HETE [3, 5]: 4.0^* nM
9-HODE [3, 5]: 160 nM
9-HOTrE [3, 5]: 4.3 nM
9-oxo-ODE [3, 5]: 51 nM
10(11)-EpDPE [3, 5]: 70^‡ nM
10,11-DiHDPE [3, 5]: 2.0 nM
10-HDHA [3, 5]: 4.3 nM
11(12)-EpETE [3, 5]: 3.5^* nM
11(12)-EpETrE [3, 5]: 77^† nM
11,12-DiHETrE [3, 5]: 1.7^* nM
11-HDHA [3, 5]: 6.6^* nM
11-HETE [3, 5]: 10 nM
12(13)-EpOME [3, 5]: 120^† nM
12,13-DiHOME [3, 5]: 28^† nM
12-HEPE [3, 5]: 2.9 nM
12-HETE [3, 5]: 29 nM
13(14)-EpDPE [3, 5]: 55^† nM
13,14-DiHDPE [3, 5]: 1.5^‡ nM
13,14-dihydro-15-keto-PGF2α [3, 5]: 0.72^† nM
13-HDHA [3, 5]: 6.0 nM
13-HODE [3, 5]: 140 nM
13-HOTrE [3, 5]: 5.2 nM
13-oxo-ODE [3, 5]: 9.2 nM
14(15)-EpETE [3, 5]: 4.2^* nM
14(15)-EpETrE [3, 5]: 57^† nM
14,15-DiHETE [3, 5]: 0.34^‡ nM
14,15-DiHETrE [3, 5]: 3.3^‡ nM
14-HDHA [3, 5]: 17 nM
15(16)-EpODE [3, 5]: 55 nM
15(S)-HETrE [3, 5]: 4.0 nM
15,16-DiHODE [3, 5]: 21 nM
15-HETE [3, 5]: 19 nM
15-oxo-ETE [3, 5]: 8.4 nM
16(17)-EpDPE [3, 5]: 52^‡ nM
16,17-DiHDPE [3, 5]: 2.8^‡ nM
16-HDHA [3, 5]: 6.1 nM
17,18-DiHETE [3, 5]: 2.1^‡ nM
18-HEPE [3, 5]: 1.3 nM
19(20)-EpDPE [3, 5]: 78^* nM
19,20-DiHDPE [3, 5]: 29^‡ nM
20-HDHA [3, 5]: 18 nM
20-HEPE [3, 5]: 5.3 nM
EKODE [3, 5]: 41 nM
PGD2 [3, 5]: 7.4 nM
PGE1 [3, 5]: 2.5 nM
PGE2 [3, 5]: 45 nM
PGF1α [3, 5]: 1.4^† nM
PGF2α [3, 5]: 15 nM
TXB2 [3, 5]: 1.3 nM
5-iPF2α [3, 6]: < 1.0 nM
8(9)-EpETE [3, 6]: 2.4^* nM
12,13-DiHODE [3, 6]: < 2.0 nM
13,14-dihydro-15-keto-PGE1 [3, 6]: < 0.1 nM
20-HETE [3, 6]: < 2.7 nM
PGD1 [3, 6]: < 0.50 nM
PGF2α ([3]; kidney tissue 24 h after LPS treatment, LPS +, mean, second listing of PGF2α (r9)): 15 nM
kidney 13,14-dihydro-15-keto-PGE1 level [3, 7]: <LOQ
kidney 13,14-dihydro-15-keto-PGE2α level [3, 7]: lowered
kidney MCP–1 mRNA levels (MCP–1): did not affect
